Here are results for two molecules from US10131707B2, “Treatment of sepsis and septic shock” (THE GENERAL HOSPITAL CORPORATION, priority 2014, dated 2018).

Entries after “also recorded” stand apart in the source; their conditions may differ. Where two headings read alike, the source gives them in different places.

In assay [1] the test system is mouse model of CLP-induced septic shock. As to the kind of experiment: Survival in CLP-induced sepsis model, inhibitors given intraperitoneally. Conditions: for Survival (in words): i.p. 1 h after CLP, SAHA 50 mg/kg, Cl-amidine 80 mg/kg, up to 10 days, compared with DMSO vehicle. The format is in vivo, male C57BL/6J mice. Here is the method:
Three experiments were carried out. In experiment I, HL-60 neutrophilic cells grown on a coverslip were treated with LPS (100 ng/ml) in the presence or absence of SAHA (5 […]]) for 3 h, and subjected to immuno-staining with anti-Cit H3 antibody to assess effect of SAHA on Cit H3 production under a fluorescence microscope. The ratio of Cit H3 positive cells was calculated as mean±SD (n=3). In experiment II, male C57BL/6J mice were subjected to CLP, and 1 hour later randomly divided into three groups for intraperitoneal injection as follows: (1) dimethyl sulfoxide (DMSO), (2) SAHA (50 mg/kg) in DMSO, and ([…]). In a separate experiment III, the male C57BL/6J mice were divided into control and treatment groups, and subjected to CLP. One hour later, immunoglobulin (IgG) and Cit H3 antibody (20 mg/kg iv; n=5/group) were injected into the control and treatment groups, respectively. All survival was monitored for 5-10 days.
Animals. Male C57B1/6J mice (6-8 weeks) weighing 25-30 g were purchased from Jackson Labs (Bar Harbor, Me.). All animals were housed in plastic cages and had access to chow and water throughout the experiment. They were kept at room temperature (24±2° C.) and exposed to alternative cycles of 12 h light and darkness. During the experiments the animals were monitored up to 10 days, and survival rate was compared between the experimental and control groups.
CLP-induced sepsis model. The CLP murine model,^15 modified as described previously, was used to induce fecal peritonitis.^16 In brief, peritoneal cavity was opened under inhaled isoflurane anesthesia. […]
Administration of inhibitors and experimental design. […] Mortality was recorded for up to 10 days post procedure.
Statistical analysis. Statistical differences were determined by Student t tests and ANOVA for two group and multiple group comparisons respectively (SPSS™ statistical software package, Chicago, Ill.). Kaplan-Meier survival curves were analyzed by using the MedCalc™ Statistical Software (Mariakerke, Belgium) for the in vivo studies. […]

The test system of assay [2] is Cit H3. Kind of assay: Production of Cit H3 after inhibition of PAD activity (data not shown).
Assay [3] relates to collagen-induced arthritis. Conditions: murine; cited from earlier work.
Assay [4] deals with HL-60 neutrophilic cells. Kind of assay: LPS-induced Cit H3 production and NETs formation in HL-60 cells, immunostaining with anti-Cit H3 antibody. The format is cell-based. The note with it: LPS 100 ng/ml, 3 h. Here is the method:
Three experiments were carried out. In experiment I, HL-60 neutrophilic cells grown on a coverslip were treated with LPS (100 ng/ml) in the presence or absence of SAHA (5 […]]) for 3 h, and subjected to immuno-staining with anti-Cit H3 antibody to assess effect of SAHA on Cit H3 production under a fluorescence microscope. The ratio of Cit H3 positive cells was calculated as mean±SD (n=3). In experiment II, male C57BL/6J mice were subjected to CLP, and 1 hour later randomly divided into three groups for intraperitoneal injection as follows: (1) dimethyl sulfoxide (DMSO), (2) SAHA (50 mg/kg) in DMSO, and (3) Cl-amidine ([…]) in DMSO (n=10/group). In a separate experiment III, the male C57BL/6J mice were divided into control and treatment groups, and subjected to CLP. One hour later, immunoglobulin (IgG) and Cit H3 antibody (20 mg/kg iv; n=5/group) were injected into the control and treatment groups, respectively. All survival was monitored for 5-10 days.
Cell culture and treatment. HL-60 cells obtained from American Type Culture Collection (ATCC) were maintained in Iscove's modified DMEM medium (Invitrogen Life Technologies, Carlsbad, Calif.) supplemented with 20% fetal bovine serum (FBS). […] The ratio of Cit H3 positive stained cells to all cells was counted and calculated as mean±SD from three individual experiments.

Assay [5] deals with mouse model of CLP-induced septic shock. Conditions: literature reference 10; cited from earlier work.
For assay [6], the system named is LPS-induced shock. The note with it: rodent; cited from earlier work.

The molecule `NC(=O)[C@H](CCCN=C(N)CCl)NC(=O)c1ccccc1` [Cl-amidine] came in with a Survival in assay [1] (80 mg/kg i.p. 1 h after CLP, monitored 10 days, n=10, DMSO vehicle 0%) of 42.5%. In assay [1], the “Survival (in words)” value is given as “notably improved long term survival; also recorded: significantly improved survival”. The “Production of Cit H3” value in assay [2] is “reduce the production of Cit H3”. In addition, the “Severity of collagen-induced arthritis” value in assay [3] is “reduce the severity”.
On to `O=C(CCCCCCC(=O)Nc1ccccc1)NO` [SAHA, suberoylanilide hydroxamic acid], for which the “LPS-induced Cit H3 production (ratio of Cit H3 positive cells to all cells)” value in assay [4] (ATRA-differentiated HL-60 cells, with or without SAHA, n=3, P<0.05) is “inhibited H3 citrullination significantly; also recorded: suppresses LPS-induced Cit H3 production”. Further, the “NETs formation after LPS insult” value in assay [4] (HL-60 neutrophilic cells) is given as “significantly inhibited”. For the same molecule, in assay [1], the “Survival (in words)” value is “notably improved long term survival”. For the same molecule, the results for the Survival entry in assay [5] and in assay [6] were “improves survival” and “significantly improves survival”, respectively.
